What was measured:
Format in all cases: in vivo, rat
[1] = system: STZ-induced diabetic rats; assay: Mixed carbohydrate tolerance test in STZ-induced diabetic rats (Example 3)
Procedure: Study in diabetic rats. Mizagliflozin was tested in a rat model for diabetes and efficacy, as measured by a relative decrease in plasma glucose, was determined using a mixed carbohydrate tolerance test. Diabetic model rats were prepared by intravenous administration of streptozotocin (STZ) to induce diabetes. Seven days after STZ administration, rats were fasted for 16 hours and then given an oral loading dose of 2.0 g/kg of mixed carbohydrate (soluble starch:sucrose:lactose monohydrate=6:3:1). Mizagliflozin, or water as the vehicle control, was then administered as a single oral dose to groups of male rats (n=8/group) at doses of 0.01, 0.03, 0.1, and 0.3 mg/kg. Another control group was given vehicle and consisted of normal male Sprague Dawley rats that were not administered STZ. Voglibose was also administered as a single oral dose to male rats (n=8/group) at dose levels of 0.03, 0.1 and 0.3 mg/kg. Blood samples were collected just prior to loading with mixed carbohydrate and at 0.5, 1, 2, 3, 4, and 6 hours after loading. Plasma glucose concentrations were determined and ΔAUC0-1 h for plasma glucose was calculated.

[2] = system: STZ-induced diabetic rats; assay: Oral mixed-carbohydrate tolerance test (OMCTT) in STZ-induced diabetic rats (Example 9); conditions: for Plasma glucose 0 hr: before dosing; for Plasma glucose 0 hr / Plasma glucose 0.5 hr / Plasma glucose 1 hr / Plasma glucose 2 hr / Plasma glucose 3 hr / ΔAUC (0-1) / ΔAUC (0-1) (% of Control): mixed-carbohydrate load, mean ± S.E.M.
Procedure: Study in diabetic rats with mixed carbohydrates. Diabetic rats, induced by intravenous injection of streptozotocin (STZ; 40 mg/kg), were used to determining plasma glucose concentration (PG) 1 hr after oral mixed-carbohydrate tolerance test (OMCTT). […] Blood was collected via the caudal artery immediately before dosing and 0.5, 1, 2, and 3 hr after dosing. The glucose concentration measurement in plasma used Glucose CII-Test Wako kit (Wako Pure Chemicals Industries, Ltd., Osaka, Japan). The variables used for efficacy assessment were the measurement values of the plasma glucose concentration and the area under the curve for plasma glucose concentration through 1 hr after loading (ΔAUC0-1 hr). The ΔAUC0-1 hr for plasma glucose was calculated based on the trapezoid method using the change of plasma glucose concentrations from pre-value (0 hr).

[3] = system: normal Sprague Dawley rats; assay: Mixed carbohydrate tolerance test in normal rats
Procedure: Study on normal rats. The efficacy of mizagliflozin (decreasing plasma glucose levels) in normal Sprague Dawley rats was determined in a mixed carbohydrate tolerance test. Normal rats were fasted for 16 hours and then given an oral loading dose of 2.0 g/kg of mixed carbohydrate (soluble starch:sucrose:lactose monohydrate=6:3:1). Mizagliflozin (KGA-3235 sebacate), or water as the vehicle control, was then administered as a single oral dose to groups of male rats (n=8/group) at doses of 0.03, 0.1, 0.3, and 1 mg/kg. Voglibose, a glucosidase inhibitor similar to acarbose, was used as a positive control and was administered as a single oral dose to male rats (n=8/group) at dose levels of 0.1, 0.3 and 1 mg/kg. Blood samples were collected just prior to loading with mixed carbohydrate and at 0.5, 1, 2, 3, 4, and 6 hours after loading.

[4] = Oral pharmacokinetics and excretion in rats
Text: Accordingly, the SGLT1 inhibitor compounds of Formula I or Formula II are locally acting in the gut, and have poor systemic exposure. […] Systemic exposure (e.g., Cmax) can be measured by methods well known in the art, including liquid chromatography mass spectrometry.

[5] = Rattus norvegicus, read-out: ED50 calculated from mean ΔAUC0-1 h (% of control), mixed carbohydrate 2.0 g/kg, single oral dose

## Cc1cc(OCCCNCC(C)(C)C(N)=O)ccc1Cc1c(O[C@@H]2O[C@H](CO)[C@@H](O)[C@H](O)[C@H]2O)n[nH]c1C(C)C [mizagliflozin, 3-(3-{4-[3-(β-D-glucopyranosyloxy)-5-isopropyl-1H-pyrazol-4-ylmethyl-]-3-methylphenoxy}propylamino)-2,2-dimethylpropionamide]
[1]; [5]
  ED50: 0.096 mg/kg
[1]; mixed carbohydrate 2.0 g/kg
  ΔAUC0-1 h of plasma glucose versus vehicle control: significantly lowered
[2]; 0.03 mg/kg oral
  Plasma glucose 0 hr: 120 ± 9 mg/dL
  Plasma glucose 0.5 hr: 289 ± 43 mg/dL
  Plasma glucose 1 hr: 245 ± 28 mg/dL
  Plasma glucose 2 hr: 129 ± 4 mg/dL
  Plasma glucose 3 hr: 106 ± 4 mg/dL
  ΔAUC (0-1): 116 ± 25 mg·h/dL
  ΔAUC (0-1) (% of Control): 71 ± 15 % of Control
[2]; 0.1 mg/kg oral
  Plasma glucose 0 hr: 128 ± 13 mg/dL
  Plasma glucose 0.5 hr: 261 ± 44 mg/dL
  Plasma glucose 1 hr: 234 ± 37 mg/dL
  Plasma glucose 2 hr: 136 ± 16 mg/dL
  Plasma glucose 3 hr: 98 ± 8 mg/dL
  ΔAUC (0-1): 93 ± 20 mg·h/dL
  ΔAUC (0-1) (% of Control): 57 ± 12 % of Control
[2]; 0.03 and 0.1 mg/kg oral, OMCTT
  PG elevation after glucose administration: inhibited PG elevation after glucose administration dose dependently
[3]; [5]
  ED50: 0.13 mg/kg
[3]; mixed carbohydrate 2.0 g/kg
  ΔAUC0-1 h of plasma glucose versus vehicle control: significantly lowered
[4]; male, rat, plasma, po
  bioavailability: 0.01 to 0.08%
[4]; oral 3, 10 and 30 mg/kg, fasted male rats
  Cmax and AUCt versus dose: increased with dose, but not in a clear dose proportional manner
[4]; rats, oral dosing
  excreted in the feces: > 97 % of orally administered dose

From patent US11596644B2, “Method for treating post-prandial hypoglycemia” (AVOLYNT, priority 2018, dated 2023)
